{"source": "paper PMC6750895", "about": "(Journal of Medicinal Chemistry, 2019)", "key": {"IKZF3": {"system": "IKZF3", "assay": "Compound-mediated IKZF3 degradation in OPM-2 cells (western blot)", "assay_type": "cell-based, human", "conditions": "24 h"}, "MsCI4": {"target": "T1, MsCI4 (Magnetospirillum gryphiswaldense, UniProt A4TVL0)", "T1 construct": "made in house", "T1 sequence (A4TVL0 1-124)": "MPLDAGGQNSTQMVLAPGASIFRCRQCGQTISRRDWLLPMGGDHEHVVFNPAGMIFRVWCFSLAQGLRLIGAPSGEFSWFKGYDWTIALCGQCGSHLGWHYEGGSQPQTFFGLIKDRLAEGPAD", "assay": "FRET-based binding assay with WT MsCI4", "conditions": "for binding in the FRET assay (in words): WT MsCI4"}, "[1]": {"assay": "Solubility in water or bicarbonate buffer", "assay_type": "physicochemical"}, "[2]": {"parameters": "method as in earlier work", "conditions": "urine; cited from earlier work"}, "[3]": {"conditions": "spontaneous hydrolysis, physiological pH of 7.4; cited from earlier work"}}, "note": "“Also recorded” adds a separate entry of the source.", "data": [{"molecule": "Nc1cccc2c1C(=O)N(C1CC(=O)NC1=O)C2=O", "note": "(stereo not shown) [5a, 4-Amino-2-(2,5-dioxopyrrolidin-3-yl)isoindoline-1,3-dione]", "values": [{"measurement": "effect on IKZF3 levels / IKZF3 recruitment (in words)", "setting": "IKZF3", "value": "significant effects"}, {"measurement": "binding in the FRET assay (in words)", "setting": "MsCI4", "value": "binding was observed but could not be quantified"}]}, {"molecule": "O=C1CC(NC(=O)OCc2ccccc2)C(=O)N1", "note": "(stereo not shown) [7d, Benzyl (2,5-Dioxopyrrolidin-3-yl)carbamate]", "values": [{"measurement": "reduction of IKZF3 levels", "setting": "IKZF3; 100 μM", "value": "about 20%"}, {"measurement": "effect on IKZF3 levels / IKZF3 recruitment (in words)", "setting": "IKZF3", "value": "significant effects"}]}, {"molecule": "NCc1ccc(COC(=O)NC2CC(=O)NC2=O)cc1.O=C(O)C(F)(F)F", "note": "(stereo not shown) [11a, (4-((((2,5-Dioxopyrrolidin-3-yl)carbamoyl)oxy)methyl)phenyl)methanaminium 2,2,2-Trifluoroacetate]", "values": [{"measurement": "effect on IKZF3 levels / IKZF3 recruitment (in words)", "setting": "IKZF3", "value": "abolished IKZF3 recruitment"}, {"measurement": "solubility in water (in words)", "setting": "[1]", "value": "water-soluble"}]}, {"molecule": "NCc1ccc(COC(=O)NC2CCC(=O)NC2=O)cc1.O=C(O)C(F)(F)F", "note": "(stereo not shown) [11b, (4-((((2,6-Dioxopiperidin-3-yl)carbamoyl)oxy)methyl)phenyl)methanaminium 2,2,2-Trifluoroacetate]", "values": [{"measurement": "solubility in water (in words)", "setting": "[1]", "value": "water-soluble"}, {"measurement": "Ki", "setting": "MsCI4", "value": "10 ± 0.8", "unit": "µM"}]}, {"molecule": "O=C1CC(N2C(=O)c3cccc([N+](=O)[O-])c3C2=O)C(=O)N1", "note": "(stereo not shown) [4a, 2-(2,5-Dioxopyrrolidin-3-yl)-4-nitroisoindoline-1,3-dione]", "values": [{"measurement": "effect on IKZF3 levels / IKZF3 recruitment (in words)", "setting": "IKZF3", "value": "abolish IKZF3 recruitment"}, {"measurement": "binding in the FRET assay (in words)", "setting": "MsCI4", "value": "binding was observed but could not be quantified"}]}, {"molecule": "O=C1CCC(NC(=O)c2ccccc2C(=O)O)C(=O)N1", "note": "(stereo not drawn) [CBG, α-(2-carboxybenzamido)glutarimide, reference compound]", "values": [{"measurement": "share among urinary metabolites of thalidomide", "setting": "[2]", "value": "~30", "unit": "%"}]}, {"molecule": "O=C(O)CCC(=O)NCc1ccc(COC(=O)NC2CC(=O)NC2=O)cc1", "note": "(stereo not shown) [12a, 4-((4-((((2,5-Dioxopyrrolidin-3-yl)carbamoyl)oxy)methyl)benzyl)amino)-4-oxobutanoic Acid]", "values": [{"measurement": "effect on IKZF3 levels / IKZF3 recruitment (in words)", "setting": "IKZF3", "value": "abolished IKZF3 recruitment"}]}, {"molecule": "O=C1CCC(N2C(=O)c3ccc([N+](=O)[O-])cc3C2=O)C(=O)N1", "note": "(stereo not shown) [4d, 2-(2,6-Dioxopiperidin-3-yl)-5-nitroisoindoline-1,3-dione]", "values": [{"measurement": "effect on IKZF3 levels / IKZF3 recruitment (in words)", "setting": "IKZF3", "value": "abolish IKZF3 recruitment"}]}, {"molecule": "O=C1CC(NC(=O)c2sc3ccccc3c2Cl)C(=O)N1", "note": "(stereo not shown) [7g, 3-Chloro-N-(2,5-dioxopyrrolidin-3-yl)benzo[b]thiophene-2-carboxamide]", "values": [{"measurement": "binding in the FRET assay (in words)", "setting": "MsCI4", "value": "binding was observed but could not be quantified"}]}, {"molecule": "O=C1CC(NC(=O)c2cc([N+](=O)[O-])cc([N+](=O)[O-])c2)C(=O)N1", "note": "(stereo not shown) [7e, N-(2,5-Dioxopyrrolidin-3-yl)-3,5-dinitrobenzamide]", "values": [{"measurement": "binding in the FRET assay (in words)", "setting": "MsCI4", "value": "binding was observed but could not be quantified; also recorded: affinity was decreased under the detectable levels of the FRET assay"}]}, {"molecule": "O=C1CCC(N2C(=O)c3cccc([N+](=O)[O-])c3C2=O)C(=O)N1", "note": "(stereo not shown) [4c, 2-(2,6-Dioxopiperidin-3-yl)-4-nitroisoindoline-1,3-dione]", "values": [{"measurement": "effect on IKZF3 levels / IKZF3 recruitment (in words)", "setting": "IKZF3", "value": "abolish IKZF3 recruitment"}, {"measurement": "binding in the FRET assay (in words)", "setting": "MsCI4", "value": "binding was observed but could not be quantified"}]}, {"molecule": "O=C1CC(NC(=O)Cc2ccccc2)C(=O)N1", "note": "(stereo not shown) [7b, N-(2,5-Dioxopyrrolidin-3-yl)-2-phenylacetamide]", "values": [{"measurement": "effect on IKZF3 levels / IKZF3 recruitment (in words)", "setting": "IKZF3", "value": "abolished IKZF3 recruitment"}, {"measurement": "binding in the FRET assay (in words)", "setting": "MsCI4", "value": "binding was observed but could not be quantified"}]}, {"molecule": "O=C(/C=C/c1ccccc1)NC1CC(=O)NC1=O", "note": "(stereo not shown) [7f, N-(2,5-Dioxopyrrolidin-3-yl)cinnamamide]", "values": [{"measurement": "effect on IKZF3 levels / IKZF3 recruitment (in words)", "setting": "IKZF3", "value": "significant effects"}]}, {"molecule": "NC(=O)CCC(C(=O)O)N1C(=O)c2ccccc2C1=O", "note": "(stereo not shown) [2-phthalimidoglutaramic acid]", "values": [{"measurement": "share among urinary metabolites of thalidomide", "setting": "[2]", "value": "~50", "unit": "%"}]}, {"molecule": "N[C@H]1CC[C@@H](COC(=O)NC2CC(=O)NC2=O)CC1", "note": "(stereo partly shown) [16a]", "values": [{"measurement": "solubility in water (in words)", "setting": "[1]", "value": "water-soluble"}, {"measurement": "Ki", "setting": "MsCI4", "value": "20 ± 2", "unit": "µM"}]}, {"molecule": "CC(C)=CC(=O)NC1CC(=O)NC1=O", "note": "(stereo not shown) [7a, N-(2,5-Dioxopyrrolidin-3-yl)-3-methylbut-2-enamide]", "values": [{"measurement": "binding in the FRET assay (in words)", "setting": "MsCI4", "value": "binding was observed but could not be quantified"}]}, {"molecule": "N[C@H]1CC[C@@H](COC(=O)NC2CCC(=O)NC2=O)CC1", "note": "(stereo partly shown) [16b]", "values": [{"measurement": "solubility in water (in words)", "setting": "[1]", "value": "water-soluble"}, {"measurement": "Ki", "setting": "MsCI4", "value": "5 ± 0.5", "unit": "µM"}]}, {"molecule": "O=C1CC(N2C(=O)c3ccc([N+](=O)[O-])cc3C2=O)C(=O)N1", "note": "(stereo not shown) [4b, 2-(2,5-Dioxopyrrolidin-3-yl)-5-nitroisoindoline-1,3-dione]", "values": [{"measurement": "effect on IKZF3 levels / IKZF3 recruitment (in words)", "setting": "IKZF3", "value": "abolish IKZF3 recruitment"}]}, {"molecule": "O=C1CCC(N2C(=O)c3ccccc3C2=O)C(=O)N1", "note": "(stereo not shown) [thalidomide]", "values": [{"measurement": "half-life", "setting": "[3]", "value": "5.5 to 7.3", "unit": "h"}]}]}
